Source: US20080119517A1, “COMPOSITIONS AND METHODS FOR PROTECTING AGAINST MITOCHONDRIA COMPONENT-MEDIATED PATHOLOGY” (Cornell Research Foundation, Inc., priority 2003, published 2008)

Tests used:
liver mitochondria = conditions: cited from earlier work
phospholipase A2 = format: biochemical
[1] = system: primary cerebrocortical neurons; assay: Oxygen-glucose deprivation (OGD) of cultured primary cerebrocortical neurons; format: cell-based, mouse; conditions: for OGD-mediated neuronal death (LDH release): promethazine 0.1 μM (p=0.05) and 0.5 μM (p<0.001)
Experimental: Heterocyclic-mediated protection was next examined in two models of stroke: (i) oxygen-glucose deprivation (OGD) of cultured primary cerebrocortical neurons, and; (ii) in the mouse, middle cerebral artery occlusion (MCAO)/reperfusion.
Neurotoxicity studies were conducted as previously described. […] Cerebral cortex of mouse embryos at day 15 (E15) were freed from meninges and separated from olfactory bulb and hippocampus.
OGD of primary cerebrocortical neurons is a widely used cell culture model of stroke-related pathology. […] Caspase-3 activation plays a key role in hypoxia/ischemia-mediated injury. To gam insight into the mechanism of promethazine-mediated neuroprotection, it was evaluated whether this compound could inhibit OGD-mediated caspase-3 activation.

[2] = system: mouse middle cerebral artery occlusion (MCAO)/reperfusion; assay: Middle cerebral artery occlusion (MCAO)/reperfusion, promethazine study; format: in vivo
Experimental: Middle cerebral artery occlusion/reperfusion studies were conducted as previously described. […] All animal experiments were conducted in accordance with National Institutes of Health and institutional guidelines. Male C57/B6 (Charles River Laboratories) mice weighing 18-29 g were housed in standard temperature (22±1° C.) and light-controlled (light on 07:00-21:00) environment with ad libitum access to food and water. Weight of animals undergoing stroke were restricted to less than 22 g. Animals undergoing stroke were randomized to two groups: untreated OP injection with 0.9% saline) and treated (IP injection with promethazine solution). Weight of animals undergoing sham operations was liberalized to 18-29 g. Surgery and Occlusion: Immediately before surgery, each mouse was anesthetized with 2% isoflurane (70% N2O/30% O2). During surgery, isoflurane was lowered to 1%. A midline incision was made in the neck and the right common carotid artery was dissected. The right MCA was occluded with a 7-0 nylon filament after permanent ligation of the external carotid artery and temporary ligation of the common carotid artery. […] Right MCA occlusion was defined as greater than or equal to a 90% drop of peak velocity measured by the laser Doppler flowmetry drop. […] The occluding filament was removed after 120 minutes. Sham operations consisted of the same duration and concentration of anesthesia, midline incision, doppler probe insertion over right temporal bone, and dissection of common carotid artery but no manipulation of the common carotid artery or external carotid artery. The surgeon was bided to treatment group. All mice were sacrificed at 24 hrs post perfusion. Experiments were in accordance with protocols approved by the Harvard Medical School Animal Care Committee. Drug Treatment: Both treated and control groups received two IP injections: the first one delivered 1 hr prior to ischemia and the second delivered 12 hrs later. Each i.p. dose was 10 mg/kg (in 0.5 ml) of promethazine dissolved in 0.9% NaCl or an equal volume of buffer alone. […] Determination of Infarct Volume: After 24 hrs of reperfusion, the mice were sacrificed. The brains were quickly removed and chilled for 2 minutes. The cerebellum was removed, Coronal sections (2 mm thick; n=6) were cut in a craniotome. […] After staining, each slice was scanned by an HP scanjet 4200 C, The unstained areas in each hemisphere were quantified and the ischemic area per slice=left (normal side)-right (ischemic side). […] The infarct volume was calculated by summing up the infracted areas in the 6 slices and calculating the volume for a cylinder (area×height). […] The examiner was blinded to treatment group.

[3] = system: 3-nitropropionic acid induced striatal lesions in Lewis rats; assay: 3-nitropropionic acid striatal lesion model (Huntington's Disease); format: in vivo, rat
Experimental: Male Lewis 344 rats were administered 3-nitroproprionic acid by subcutaneous Alzet pumps. 3-Nitropropionic acid is a mitochondrial toxin which causes selective degeneration in the basal ganglia, mice, rats and primates. The lesions that it produces highly mimic the neuropathologic features associated with Huntington's Disease. The male Lewis rats weighed from about 340 to abut 370 grams and were obtained from Charles River Laboratories. At twelve weeks of age, the subcutaneous pumps were implanted. The concentration for each individual rat was calculated so that the animals received a dose of 38 mg/kg/d. Control animals were implanted with empty osmotic pumps. The 3-nitropropionic acid was administered for one week. Animals were treated with either phosphate buffered saline (PBS) promethazine in PBS at doses of 5 to 40 mg/kg/d. One week after the administration of the compound the rats were deeply anesthetized and transcardially perfused with 4% paraformaldehyde in PBS. Subsequently, 50 μm sections were obtained and stained for nissel substance. The lesion volumes were then calculated using stereologic procedures.

[4] = system: MPTP-induced dopamine depletion and dopaminergic neuron loss; assay: MPTP experimental animal model for Parkinson's Disease; format: in vivo
Excerpt: 1-Methyl-4-phenyl-1,2,3,6-tetrahydropyridine (MPTP) has been employed as an experimental animal model for Parkinson's Disease. As evidenced by FIG. 9, promethazine appeared to have no effect on striatal dopamine levels at base line.

humans = conditions: human, in vivo; cited from earlier work
heart during ischemia = conditions: cited from earlier work

NCCc1c[nH]cn1 [Histamine]
swelling of liver mitochondria (liver mitochondria): cause swelling

CC(CN1c2ccccc2Sc2ccccc21)N(C)C (stereo not shown) [Promethazine]
PLA2 inhibition (phospholipase A2): does not appear to be a strong | OGD-mediated caspase-3 activation [1]: reduced | OGD-mediated neuronal death (LDH release) [1]: inhibited | OGD-mediated neuronal death (LDH release) ([1]; listed as promethazine): protection | reduction in lesion size compared with saline-treated mice ([2]; 10 mg/kg i.p. 1 hr prior to ischemia and 12 hrs later, 24 hrs reperfusion, n=13, p<0.005): 53% | reduction of maximal infarct size ([2]; 10 mg/kg i.p. twice): 65% | reduction of variability of the injury ([2]; 10 mg/kg i.p. twice): 65% | neurologic score ([2]; 30 minute post-ischemia evaluation): not different | neurologic impairment score ([2]; 24 hours following MCAO, p<0.05): significantly improved | protection from MCA occlusion/reperfusion ([2]; total stroke volume P<0.005): protects | striatal lesion volume ([3]; 3-nitropropionic acid 38 mg/kg/d for one week, promethazine 5 to 40 mg/kg/d, untreated ~14 mm^3): ~4 mm^3 | 3-nitropropionic induced lesions ([3]; increasing dosages): blocked | MPTP-induced reduction in striatal dopamine levels ([4]; 20 mg/kg): significantly attenuated | depletion of striatal dopamine levels, dose response ([4]; 2.5, 5, and 40 mg/kg examined, optimal effects at 10 and 40 mg/kg): dose-dependent neuroprotection | loss of dopaminergic neurons in the substantia nigra pars compacta ([4]; 50% cell loss following MPTP): significantly attenuated | striatal dopamine levels at base line ([4]; without MPTP): no effect | tolerability in humans (humans): well-tolerated drug with few adverse side effects

CCN(CC)CCCC(C)Nc1c2ccc(Cl)cc2nc2ccc(OC)cc12 (stereo not shown) [Quinacrine]
protection in the heart during ischemia (heart during ischemia): protective agent
